Test results published in patent US12281121B2, “N-containing heteroaryl derivative and pharmaceutical composition comprising same as active ingredient for prevention or treatment of cancer” (VORONOI Inc., priority 2019, dated 2025).

How the values were obtained:
[1] = test system: Ba/F3 KIF5B-RET (V804M) cells; experiment: Cell proliferation inhibition, CellTiter-Glo; assay type: cell-based; settings: Mus musculus, BaF3, 72 hours
Experimental: (§1) Among lung cancer cell lines, which express RET fusion genes, LC-2/ad cells were cultured after adding 10% FBS (HyClone) to RPMI:F12 (1:1) (Invitrogen), and F-12 (Invitrogen) supplemented with 10% FBS was used for TT cells. RPMI-1640 supplemented with 10% FBS and 5 ng/ml IL-3 (R&D Systems) was used for Ba/F3 cells. Transduced Ba/F3 cells were cultured by adding 1 ug/ml puromycin (Invitrogen) to the same medium. 24 hours before cells were treated with the compound, 3000 to 5000 cells were aliquoted into each well of a white clear bottom 96 well plate (Corning). The compound was diluted in DMSO (3-fold dilution, a total of 12 concentrations) and the compound was injected by 0.5 μl such that the final concentration was 0.3 nM to 50 μM. For the measurement of living cells, 72 hours after the compound treatment, the cells were stored at room temperature for 10 minutes using a CellTiter-Glo luminescent cell-viability agent (Promega), and then the luminescence intensity was measured using a reader (SynergyNeo, Biotek). Each experiment was repeated in triplicate. The result value was calculated by the cell growth ratio (%) compared to the control. A graph was drawn using the GraphPad Prism version 5.0 program, and a GI50 (nM) value was calculated.
(§2) In the cell assay column, LC-2/ad (with CCDC6-RET gene) is a lung cancer cell line, a TT cell line ([…]) is a thyroid cancer cell line, Ba/F3 CCDC6-RET (WT), Ba/F3 KIF5B-RET (WT), and Ba/F3 KIF5B-RET (V804M) are cells in which disease-related traits (CCDC6-RET, KIF5B-RET, and KIF5B-RET (V804M)) are introduced into Ba/F3 cells, and Ba/F3 (naive) is a cell which is not transduced.

RET (WT) = biological target: T1, RET (WT) (Homo sapiens, UniProt P07949); experiment: RET enzyme inhibitory ability, ADP-Glo kinase assay; assay type: biochemical; settings: ATP 10 μM, 25° C., 1 hour
T1 construct: human RET (658-end, SIGNALCHEM); purchased SIGNALCHEM
T1 sequence (P07949 658-1114 limits assumed): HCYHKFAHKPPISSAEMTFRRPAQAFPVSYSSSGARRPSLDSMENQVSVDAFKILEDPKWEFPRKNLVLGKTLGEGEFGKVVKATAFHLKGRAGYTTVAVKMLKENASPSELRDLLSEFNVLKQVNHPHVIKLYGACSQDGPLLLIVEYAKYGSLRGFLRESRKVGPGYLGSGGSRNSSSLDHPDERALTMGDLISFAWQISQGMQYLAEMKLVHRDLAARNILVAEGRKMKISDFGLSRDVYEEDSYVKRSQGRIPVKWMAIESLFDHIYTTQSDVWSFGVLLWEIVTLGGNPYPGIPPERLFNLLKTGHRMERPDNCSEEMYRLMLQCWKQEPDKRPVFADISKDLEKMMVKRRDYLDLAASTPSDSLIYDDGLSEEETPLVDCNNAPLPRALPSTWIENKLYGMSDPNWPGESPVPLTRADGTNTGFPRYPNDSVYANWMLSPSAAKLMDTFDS
Experimental: The Example compound was reacted with a purified human RET (658-end, SIGNALCHEM) enzyme to evaluate the enzyme inhibitory ability by the following method. As a reaction buffer, a composition of 40 mM Tris-HCl pH 7.4, 20 mM MgCl2, 0.5 mg/mL BSA, and 50 μM DTT was used, and all experimental materials were reacted on the reaction buffer. After the human RET (658-end, 0.8 ng) enzyme was reacted with purified ATP (10 μM) and a specific substrate solution at 25° C. for 1 hour during the experiment, the enzyme activity was confirmed using in vitro ADP-Glo™ kinase assay (Promega). Luminescence was measured by reacting the enzyme activity reaction solution, the ADP-Glo reaction solution, and the enzyme activity detection solution at a ratio of 2:2:1. The degree of inhibition of enzyme activity according to the treatment concentration of each compound was calculated based on the […] of the enzyme activity of a solvent control group in which a compound was not treated, and in this case, the concentration of each compound which suppresses the […] enzyme activity by 50% was determined as an IC50 (nM) value. The IC50 (nM) of each compound was determined by 3 datasets and obtained using Prism (version 7.01, GraphPad) software.
In the enzyme assay column, RET (WT) is a non-mutated form, RET (V804M) is a mutated form in which the V amino acid at position 804 of the RET is substituted with M, and CCDC6-RET is a form in which the RET (WT) gene and CCDC6 gene are fused.

[2] = test system: Ba/F3 KIF5B-RET (WT) cells; experiment: Cell proliferation inhibition, CellTiter-Glo; assay type: cell-based; settings: Mus musculus, BaF3, 72 hours
Experimental: as §1, §2

Ba/F3 (naive) cells = experiment: Cell proliferation inhibition, CellTiter-Glo; assay type: cell-based; settings: Mus musculus, BaF3; Ba/F3 not transduced, 72 hours
Experimental: as §1, §2

[3] = test system: Ba/F3 CCDC6-RET (WT) cells; experiment: Cell proliferation inhibition, CellTiter-Glo; assay type: cell-based; settings: BaF3/CCDC6-RET, 72 hours
Experimental: as §1, §2

COc1ccc(CN2C[C@@H](C)N(c3ccc(-c4nc(Nc5cc(C)[nH]n5)c5ccccc5n4)cn3)C[C@@H]2C)cn1 [Example 32]
GI50 [1]: 239 nM

Cc1ncc(CN2C3CC2CN(c2ccc(-c4nc(Nc5cc(C)[nH]n5)c5ccccc5n4)cn2)C3)cn1 [Example 25, N-(5-methyl-1H-pyrazol-3-yl)-2-(6-(6-((2-methylpyrimidin-5-yl)methyl)-3,6-diazabicyclo [3.1.1]heptan-3-yl)pyridin-3-yl)quinazolin-4-amine]
IC50 (RET (WT)): 7 nM
GI50 [2]: 14 nM
GI50 (Ba/F3 (naive) cells): 1650 nM
GI50 [1]: 21 nM
GI50 [3]: 50 nM

Cc1cc(Nc2nc(-c3ccc(N4CC5CC(C4)N5Cc4ccc(C(F)(F)F)nc4)nc3)nc3ccccc23)n[nH]1 [Example 8, N-(5-methyl-1H-pyrazol-3-yl)-2-(6-(6-((6-(tri-fluoromethyl)py-ridin-3-yl)meth-yl)-3,6-diaza-bicyclo[3.1.1]heptan-3-yl)pyridin-3-yl)quinazolin-4-amine]
IC50 (RET (WT)): 32 nM
GI50 [2]: 12 nM
GI50 (Ba/F3 (naive) cells): 1980 nM
GI50 [1]: 23 nM
GI50 [3]: 51 nM

COc1ccc(CN2C[C@@H]3C[C@H]2CN3c2ccc(-c3nc(Nc4cc(C)[nH]n4)c4ccccc4n3)cn2)cn1 [Example 31, 2-(6-((1S,4S)-5-((6-methoxy-pyridin-3-yl)methyl)-2,5-diazabicyclo [2.2.1]heptan-2-yl)pyridin-3-yl)-N-(5-methyl-1H-pyrazol-3-yl)quinazolin-4-amine]
IC50 (RET (WT)): 25 nM
GI50 [2]: 18 nM
GI50 (Ba/F3 (naive) cells): 1680 nM
GI50 [1]: 12 nM
GI50 [3]: 66 nM

COc1ncc(CN2C3CC2CN(c2ccc(-c4nc(Nc5cc(C)[nH]n5)c5ccccc5n4)cn2)C3)cc1Cl [Example 16, 2-(6-(6-((5-chloro-6-methoxypyridin-3-yl)methyl)-3,6-diazabicyclo [3.1.1]heptan-3-yl)pyridin-3-yl)-N-(5-methyl-1H-pyrazol-3-yl)quinazolin-4-amine]
IC50 (RET (WT)): 60 nM
GI50 [2]: 42 nM
GI50 (Ba/F3 (naive) cells): 4010 nM
GI50 [1]: 39 nM
GI50 [3]: 127 nM

Cc1cc(Nc2nc(-c3ccc(N4CC5CC(C4)N5Cc4ncc(C)s4)nc3)nc3ccccc23)n[nH]1 [Example 5, N-(5-methyl-1H-pyrazol-3-yl)-2-(6-(6-((5-methylthiazol-2-yl)methyl)-3,6-diazabicyclo [3.1.1]heptan-3-yl)pyridin-3-yl)quinazolin-4-amine]
IC50 (RET (WT)): 18 nM
GI50 [2]: 7 nM
GI50 (Ba/F3 (naive) cells): 1060 nM
GI50 [1]: 4 nM
GI50 [3]: 41 nM

COc1ccc(CN2CC3CC(C2)N3c2ccc(-c3nc(Nc4cc(C)[nH]n4)c4ccccc4n3)cn2)cn1 [Example 6, 2-(6-(3-((6-methoxypyridin-3-yl)methyl)-3,6-diazabicyclo [3.1.1]heptan-6-yl)pyridin-3-yl)-N-(5-methyl-1H-pyrazol-3-yl)quinazolin-4-amine]
IC50 (RET (WT)): 27 nM
GI50 [2]: 67 nM
GI50 (Ba/F3 (naive) cells): 9220 nM
GI50 [1]: 70 nM
GI50 [3]: 166 nM

COc1ccc(CN2C[C@H](C)N(c3ccc(-c4nc(Nc5cc(C)[nH]n5)c5ccccc5n4)cn3)C[C@H]2C)cn1 [Example 28, 2-(6-((2S,5R)-4-((6-methoxy-pyridin-3-yl)methyl)-2,5-di-methylpiperazin-1-yl)pyridin-3-yl)-N-(5-methyl-1H-pyrazol-3-yl)quinazolin-4-amine]
GI50 [1]: 321 nM

Cc1cc(Nc2nc(-c3ccc(N4CC5CC(C4)N5Cc4ccn(C)c(=O)c4)nc3)nc3ccccc23)n[nH]1 [Example 27, 1-methyl-4-((3-(5-(4-((5-methyl-1H-pyrazol-3-yl)amino)quina-zolin-2-yl)pyridin-2-yl)-3,6-diazabicyclo [3.1.1]heptan-6-yl)methyl)pyri-din-2(1H)-one]
GI50 [1]: 159 nM

Cc1cc(Nc2nc(-c3ccc(N4CC5CC(C4)N5Cc4ccc5ncccc5c4)nc3)nc3ccccc23)n[nH]1 [Example 18, N-(5-methyl-1H-pyrazol-3-yl)-2-(6-(6-(quinolin-6-ylmethyl)-3,6-diazabicyclo [3.1.1]heptan-3-yl)pyridin-3-yl)quinazolin-4-amine]
IC50 (RET (WT)): 34 nM
GI50 [2]: 28 nM
GI50 (Ba/F3 (naive) cells): 4600 nM
GI50 [1]: 25 nM
GI50 [3]: 67 nM

COc1cnc(CN2C3CC2CN(c2ccc(-c4nc(Nc5cc(C)[nH]n5)c5ccccc5n4)cn2)C3)cn1 [Example 17, 2-(6-(6-((5-methoxypyrazin-2-yl)methyl)-3,6-diazabicyclo [3.1.1]heptan-3-yl)pyridin-3-yl)-N-(5-methyl-1H-pyrazol-3-yl)quinazolin-4-amine]
IC50 (RET (WT)): 11 nM
GI50 [2]: 10 nM
GI50 (Ba/F3 (naive) cells): 867 nM
GI50 [1]: 7 nM
GI50 [3]: 46 nM

Cc1cc(Nc2nc(-c3ccc(N4CC5CC(C4)N5Cc4ccc(F)nc4)nc3)nc3ccccc23)n[nH]1 [Example 23, 2-(6-(6-((6-fluoropyridin-3-yl)methyl)-3,6-diazabicyclo [3.1.1]heptan-3-yl)pyridin-3-yl)-N-(5-methyl-1H-pyrazol-3-yl)quinazolin-4-amine]
IC50 (RET (WT)): 15 nM
GI50 [2]: 14 nM
GI50 (Ba/F3 (naive) cells): 1300 nM
GI50 [1]: 19 nM
GI50 [3]: 57 nM

COc1ccc(CN2CCN(c3ccc(-c4nc(Nc5cc(C)[nH]n5)c5ccccc5n4)cn3)C[C@@H]2C)cn1 [Example 33, (S)-2-(6-(4-((6-methoxypyridin-3-yl)methyl)-3-methylpiperazin-1-yl)pyridin-3-yl)-N-(5-methyl-1H-pyrazol-3-yl)quinazolin-4-amine]
GI50 [1]: 121 nM

Cc1cc(Nc2nc(-c3ccc(N4CC5CC(C4)N5Cc4cc(F)c(OC(C)C)c(F)c4)nc3)nc3ccccc23)n[nH]1 [Example 11, 2-(6-(6-(3,5-difluoro-4-isopropoxy-benzyl)-3,6-diazabicyclo [3.1.1]heptan-3-yl)pyridin-3-yl)-N-(5-methyl-1H-pyrazol-3-yl)quinazolin-4-amine]
GI50 [1]: 119 nM

Cc1cc(Nc2nc(-c3ccc(N4CC5CC(C4)N5Cc4ccc(NS(C)(=O)=O)cc4)nc3)nc3ccccc23)n[nH]1 [Example 21, N-(4-((3-(5-(4-((5-methyl-1H-pyrazol-3-yl)a-mino)quinazolin-2-yl)pyridin-2-yl)-3,6-diazabicyclo [3.1.1]heptan-6-yl)methyl)phenyl) methane-sulfonamide]
GI50 [1]: 117 nM

Cc1cc(Nc2nc(-c3ccc(N4CC5CC(C4)N5Cc4cnc[nH]4)nc3)nc3ccccc23)n[nH]1 [Example 13, 2-(6-(6-((1H-imidazol-5-yl)methyl)-3,6-diazabicyclo [3.1.1]heptan-3-yl)pyridin-3-yl)-N-(5-methyl-1H-pyrazol-3-yl)quinazolin-4-amine]
GI50 [1]: 2450 nM

COc1ccc(CN2C(C)CN(c3ccc(-c4nc(Nc5cc(C)[nH]n5)c5ccccc5n4)cn3)C[C@H]2C)cn1 (stereo in doubt) [Example 35, 2-(6-((3R,5S)-4-((6-methoxy-pyridin-3-yl)methyl)-3,5-dimethyl-piperazin-1-yl)pyridin-3-yl)-N-(5-methyl-1H-pyrazol-3-yl)quinazolin-4-amine]
GI50 [1]: 328 nM
